# Like-named read-outs stand apart in the source and are kept apart here.
# Assays:
# [1] = system: black soldier fly larvae; conditions: Example 3, bean pulp/bran/grass meal 3:5:2 feed, 6-day-old larvae
# Experimental: (§1) After the feeding was terminated, the obtained larvae were screened, washed, wiped dry and weighed. The survival rate was calculated according to the number of live larvae. The larvae were subjected to starvation for 1 day, then dried and weighed. The residual feed was also dried and weighed. Thereby, bioconversion efficiency was calculated according to the following: bioconversion efficiency=dry weight of the larvae/(dry weight of the added feed−dry weight of the residual feed)×100%. Selenium content in the larva was determined after smashing the dry larvae according to “GB5009.93-2017 Determination of Selenium in Food”.
# (§2) Effects of the selenium-rich bacteria solution on breeding of the selenium-rich black soldier flies were determined according to the indicators, i.e. growth performance of the larvae (survival rate, larva weight), bioconversion efficiency, and selenium content in the larva. The test method for each indicator was the same as that in Example 2.
# [2] = system: black soldier fly larvae; conditions: Example 2, chicken feed, 4-day-old larvae
# Experimental: Step 3, 4-day-old black soldier fly larvae were selected to be fed; the selenium-rich bacteria solution was added to chicken feed to enable the chicken feed to have a total selenium content of 100, 200, 300 mg/kg (wet weight), respectively; a moisture content of the chicken feed was controlled to 60%, then the black soldier fly larvae were fed with the chicken feed at a ratio of dry chicken feed to larva being 116 g per 150 larvae (the ratio of dry feed to larva was 0.77) in conditions of 28° C.-30° C. feeding temperature and 60%-70% air humidity level, and feeding was terminated at the end of the fifth instar of the larvae.
# The effects of the selenium-rich bacteria solution on breeding of the selenium-rich black soldier flies were determined according to the indicators, i.e. growth performance of the larvae (survival rate, larva weight), bioconversion efficiency, and selenium content in the larva.
# as §1
# [3] = system: black soldier fly larvae; conditions: Example 4, bean pulp/bran/grass meal 3:5:2 feed, 6-day-old larvae
# Experimental: as §1
# as §2, with “Test” for “The test”
# [4] = system: black soldier fly larvae; conditions: Example 5, bean pulp/bran/grass meal 3:5:2 feed, 6-day-old larvae
# Experimental: as §1
# as §2, with “The effects” for “Effects”, “Test” for “The test”
# [5] = selenium content added 100.00 mg/kg
# [6] = selenium content added 200.00 mg/kg
# [7] = selenium content added 300.00 mg/kg
structure (smiles),measurement,setting,value
O=[Se](O)O [sodium selenite],Larva weight,[1]; [5],179.63 ± 9.99 mg per larva
same,Survival rate,[1]; [5],85.04 ± 8.77%
same,Larva weight,[1]; [6],154.41 ± 10.66 mg per larva
same,Survival rate,[1]; [6],84.51 ± 5.06%
same,Larva weight,[1]; [7],119.53 ± 10.79 mg per larva
same,Survival rate,[1]; [7],82.22 ± 8.77%
same,Larva weight,[2]; [5],212.39 ± 9.63 mg per larva
same,Larva weight,[2]; [6],214.37 ± 7.56 mg per larva
same,Survival rate,[2]; [6],94.22 ± 1.35%
same,Larva weight,[2]; [7],210.57 ± 3.50 mg per larva
same,Survival rate,[2]; [7],91.33 ± 4.27%
same,Larva weight,[3]; [5],183.72 ± 9.71 mg per larva
same,Survival rate,[3]; [5],87.12 ± 6.53%
same,Larva weight,[3]; [6],156.56 ± 11.10 mg per larva
same,Survival rate,[3]; [6],89.27 ± 3.40%
same,Larva weight,[3]; [7],122.15 ± 5.66 mg per larva
same,Survival rate,[3]; [7],83.17 ± 0.97%
same,Larva weight,[4]; [5],179.95 ± 9.51 mg per larva
same,Survival rate,[4]; [5],85.33 ± 6.40%
same,Larva weight,[4]; [6],153.34 ± 10.87 mg per larva
same,Survival rate,[4]; [6],87.43 ± 3.33%
same,Larva weight,[4]; [7],119.64 ± 5.54 mg per larva
same,Survival rate,[4]; [7],81.46 ± 0.96%
